System: patients after acute myocardial infarction
Assay: TCM symptom score, total and single (chest pain, chest tightness, short breath, fatigue, palpitation, spontaneous perspiration, pale complexion), same clinical trial
Assay type: in vivo, human
Text: 3508 patients who were in accordance with the diagnostic standards of AMI for 28 days to 2 years and differentiated as Qi deficiency and blood stagnation syndrome by TCM were studied. 0.5 g Chinese medicine composition prepared by the method of EXAMPLE 1 (Coded as QSYQ) was administrated half an hour after meal, 3 times per day.
They included the overall survival time, angina pectoris score, TCM symptom score and life quality score, where angina pectoris score, TCM symptom score and life quality score were evaluated at randomization, in 1st, 3rd, 6th, 9th, 12th month after treatment and 18th month after follow-up.
The analysis method referred to the angina pectoris score.

[1] = 3 months after treatment-baseline, PP
[2] = 6 months after treatment-baseline, FAS
[3] = 6 months after treatment-baseline, PP

In the case of `CC(=O)Oc1ccccc1C(=O)O` [Control group, aspirine], the “change of chest pain score −6, percent of patients” value [1] is reported as “(0.97%)”, the “change of chest tightness score 0, number of patients” value [1] is reported as 994 and the “change of chest tightness score 0, percent of patients” value [1] is reported as “(68.88%)”. For the same molecule, the “change of chest tightness score 3, number of patients” value [1] was 334, the “change of chest tightness score 3, percent of patients” value [1] was “(23.15%)” and the “change of chest tightness score 6, number of patients” value [1] was 34. The “change of chest tightness score 6, percent of patients” value [1] was “(2.36%)”, the “change of chest tightness score 9, number of patients” value [1] was 4 and the “change of chest tightness score 9, percent of patients” value [1] was “(0.28%)”. The “change of chest tightness score −3, number of patients” value [1] was 70, the “change of chest tightness score −3, percent of patients” value [1] was “(4.85%)” and the “change of chest tightness score −6, number of patients” value [1] was 6. The “change of chest tightness score −6, percent of patients” value [1] was “(0.42%)”, the “change of chest tightness score −9, number of patients” value [1] was 1 and the “change of chest tightness score −9, percent of patients” value [1] was “(0.07%)”. The “chest pain score 0, number of patients” value (3 months after treatment, FAS) was 656, the “chest pain score 0, percent of patients” value (3 months after treatment, FAS) was “(38.21%)” and the “chest pain score 3, number of patients” value (3 months after treatment, FAS) was 643. The “chest pain score 3, percent of patients” value (3 months after treatment, FAS) was “(37.45%)”, the “chest pain score 6, number of patients” value (3 months after treatment, FAS) was 410 and the “chest pain score 6, percent of patients” value (3 months after treatment, FAS) was “(23.88%)”. The “chest pain score 9, number of patients” value (3 months after treatment, FAS) was 8, the “chest pain score 9, percent of patients” value (3 months after treatment, FAS) was “(0.47%)” and the “chest tightness score 0, number of patients” value (3 months after treatment, FAS) was 656. For the same molecule, the “chest tightness score 0, percent of patients” value (3 months after treatment, FAS) was “(38.21%)”, the “chest tightness score 3, number of patients” value (3 months after treatment, FAS) was 643 and the “chest tightness score 3, percent of patients” value (3 months after treatment, FAS) was “(37.45%)”. The “chest tightness score 6, number of patients” value (3 months after treatment, FAS) was 410, the “chest tightness score 6, percent of patients” value (3 months after treatment, FAS) was “(23.88%)” and the “chest tightness score 9, number of patients” value (3 months after treatment, FAS) was 8. For the same molecule, the “chest tightness score 9, percent of patients” value (3 months after treatment, FAS) was “(0.47%)”, the “chest pain score 0, number of patients” value (3 months after treatment, PP) was 550 and the “chest pain score 0, percent of patients” value (3 months after treatment, PP) was “(38.01%)”. The “chest pain score 3, number of patients” value (3 months after treatment, PP) was 535, the “chest pain score 3, percent of patients” value (3 months after treatment, PP) was “(36.97%)” and the “chest pain score 6, number of patients” value (3 months after treatment, PP) was 356. The “chest pain score 6, percent of patients” value (3 months after treatment, PP) was “(24.60%)”, the “chest pain score 9, number of patients” value (3 months after treatment, PP) was 6 and the “chest pain score 9, percent of patients” value (3 months after treatment, PP) was “(0.41%)”. The “chest tightness score 0, number of patients” value (3 months after treatment, PP) was 550, the “chest tightness score 0, percent of patients” value (3 months after treatment, PP) was “(38.01%)” and the “chest tightness score 3, number of patients” value (3 months after treatment, PP) was 535. The “chest tightness score 3, percent of patients” value (3 months after treatment, PP) was “(36.97%)”, the “chest tightness score 6, number of patients” value (3 months after treatment, PP) was 356 and the “chest tightness score 6, percent of patients” value (3 months after treatment, PP) was “(24.60%)”. The “chest tightness score 9, number of patients” value (3 months after treatment, PP) was 6, the “chest tightness score 9, percent of patients” value (3 months after treatment, PP) was “(0.41%)” and the “change of chest pain score 0, number of patients” value [2] was 1104. For the same molecule, the “change of chest pain score 0, percent of patients” value [2] was “(64.60%)”, the “change of chest pain score 3, number of patients” value [2] was 405 and the “change of chest pain score 3, percent of patients” value [2] was “(23.70%)”. For the same molecule, the “change of chest pain score 6, number of patients” value [2] was 101, the “change of chest pain score 6, percent of patients” value [2] was “(5.91%)” and the “change of chest pain score 9, number of patients” value [2] was 6. The “change of chest pain score 9, percent of patients” value [2] was “(0.35%)”, the “change of chest pain score −3, number of patients” value [2] was 80 and the “change of chest pain score −3, percent of patients” value [2] was “(4.68%)”. For the same molecule, the “change of chest pain score −6, number of patients” value [2] was 13, the “change of chest pain score −6, percent of patients” value [2] was “(0.76%)” and the “change of chest pain score −9, number of patients” value [2] was 0. The “change of chest pain score −9, percent of patients” value [2] was “(0.00%)”, the “change of chest tightness score 0, number of patients” value [2] was 1105 and the “change of chest tightness score 0, percent of patients” value [2] was “(64.66%)”. For the same molecule, the “change of chest tightness score 1, number of patients” value [2] was 1, the “change of chest tightness score 1, percent of patients” value [2] was “(0.06%)” and the “change of chest tightness score 3, number of patients” value [2] was 459. The “change of chest tightness score 3, percent of patients” value [2] was “(26.86%)”, the “change of chest tightness score 6, number of patients” value [2] was 48 and the “change of chest tightness score 6, percent of patients” value [2] was “(2.81%)”. The “change of chest tightness score 9, number of patients” value [2] was 4, the “change of chest tightness score 9, percent of patients” value [2] was “(0.23%)” and the “change of chest tightness score −3, number of patients” value [2] was 88. For the same molecule, the “change of chest tightness score −3, percent of patients” value [2] was “(5.15%)”, the “change of chest tightness score −6, number of patients” value [2] was 3 and the “change of chest tightness score −6, percent of patients” value [2] was “(0.18%)”. For the same molecule, the “change of chest tightness score −9, number of patients” value [2] was 1, the “change of chest tightness score −9, percent of patients” value [2] was “(0.06%)” and the “change of chest pain score 0, number of patients” value [3] was 919. The “change of chest pain score 0, percent of patients” value [3] was “(64.54%)”, the “change of chest pain score 3, number of patients” value [3] was 352 and the “change of chest pain score 3, percent of patients” value [3] was “(24.72%)”. For the same molecule, the “change of chest pain score 6, number of patients” value [3] was 86, the “change of chest pain score 6, percent of patients” value [3] was “(6.04%)” and the “change of chest pain score 9, number of patients” value [3] was 5. For the same molecule, the “change of chest pain score 9, percent of patients” value [3] was “(0.35%)”, the “change of chest pain score −3, number of patients” value [3] was 57 and the “change of chest pain score −3, percent of patients” value [3] was “(4.00%)”. The “change of chest pain score −6, number of patients” value [3] was 5, the “change of chest pain score −6, percent of patients” value [3] was “(0.35%)” and the “change of chest pain score −9, number of patients” value [3] was 0. For the same molecule, the “change of chest pain score −9, percent of patients” value [3] was “(0.00%)”, the “change of chest tightness score 0, number of patients” value [3] was 904 and the “change of chest tightness score 0, percent of patients” value [3] was “(63.44%)”. For the same molecule, the “change of chest tightness score 1, number of patients” value [3] was 1, the “change of chest tightness score 1, percent of patients” value [3] was “(0.07%)” and the “change of chest tightness score 3, number of patients” value [3] was 407. The “change of chest tightness score 3, percent of patients” value [3] was “(28.56%)”, the “change of chest tightness score 6, number of patients” value [3] was 42 and the “change of chest tightness score 6, percent of patients” value [3] was “(2.95%)”. The “change of chest tightness score 9, number of patients” value [3] was 3, the “change of chest tightness score 9, percent of patients” value [3] was “(0.21%)” and the “change of chest tightness score −3, number of patients” value [3] was 64. The “change of chest tightness score −3, percent of patients” value [3] was “(4.49%)”, the “change of chest tightness score −6, number of patients” value [3] was 3 and the “change of chest tightness score −6, percent of patients” value [3] was “(0.21%)”. The “change of chest tightness score −9, number of patients” value [3] was 1, the “change of chest tightness score −9, percent of patients” value [3] was “(0.07%)” and the “chest pain score 0, number of patients” value (6 months after treatment, FAS) was 729. The “chest pain score 0, percent of patients” value (6 months after treatment, FAS) was “(42.43%)”, the “chest pain score 3, number of patients” value (6 months after treatment, FAS) was 638 and the “chest pain score 3, percent of patients” value (6 months after treatment, FAS) was “(37.14%)”. For the same molecule, the “chest pain score 6, number of patients” value (6 months after treatment, FAS) was 345, the “chest pain score 6, percent of patients” value (6 months after treatment, FAS) was “(20.08%)” and the “chest pain score 9, number of patients” value (6 months after treatment, FAS) was 6. For the same molecule, the “chest pain score 9, percent of patients” value (6 months after treatment, FAS) was “(0.35%)”, the “chest tightness score 0, number of patients” value (6 months after treatment, FAS) was 729 and the “chest tightness score 0, percent of patients” value (6 months after treatment, FAS) was “(42.43%)”. The “chest tightness score 3, number of patients” value (6 months after treatment, FAS) was 638, the “chest tightness score 3, percent of patients” value (6 months after treatment, FAS) was “(37.14%)” and the “chest tightness score 6, number of patients” value (6 months after treatment, FAS) was 345. For the same molecule, the “chest tightness score 6, percent of patients” value (6 months after treatment, FAS) was “(20.08%)”, the “chest tightness score 9, number of patients” value (6 months after treatment, FAS) was 6 and the “chest tightness score 9, percent of patients” value (6 months after treatment, FAS) was “(0.35%)”. For the same molecule, the “chest pain score 0, number of patients” value (6 months after treatment, PP) was 613.
